According to patent US20040208842A1, “Antimicrobial cleansing compositions and methods of use” (priority 2001, published 2004):
Several values for one entry are separate records, joined by “and”; a condition that tells them apart may be missing. Equal entries are not always repeated.

How the values were obtained:
[1] = test system: Candida albicans; experiment: MIC and MBC of cleanser formulation and components; type: cell-based; settings: C. albicans; cocamidopropyl betaine alone
Description: (§1) The solution containing 10% cocamidopropyl betaine was selected for further testing. The formulation was tested against Pseudomonas aeruginosa, Proteus mirabilis, […] coli, Staphylococcus intermedius, Malassezia pachydermatis, and Candida albicans.

[2] = test system: Proteus mirabilis; experiment: MIC and MBC of cleanser formulation and components; type: cell-based; settings: P. mirabilis; cocamidopropyl betaine alone
Description: as §1

[3] = test system: Staphylococcus intermedius; experiment: MIC and MBC of cleanser formulation and components; type: cell-based; settings: S. intermedius; cocamidopropyl betaine alone
Description: as §1

[4] = test system: Malassezia pachydermatis; experiment: MIC and MBC of cleanser formulation and components; type: cell-based; settings: M. pachydermatis; cocamidopropyl betaine alone
Description: as §1

[5] = test system: Pseudomonas aeruginosa; experiment: MIC and MBC of cleanser formulation and components; type: cell-based; settings: P. aeruginosa; cocamidopropyl betaine alone
Description: as §1

[6] = test system: E. coli; experiment: MIC and MBC of cleanser formulation and components; type: cell-based, Escherichia coli; settings: cocamidopropyl betaine alone
Description: as §1

[7] = test system: Pseudomonas aeruginosa; experiment: Minimal Bactericidal Concentration (MBC) of EDTA and neomycin in 50 mM Tris; type: cell-based; settings: Ps. aeruginosa
Source text: (§2) The organisms of this study were isolated from human burn patients. They included strains of methicillin resistant Staphylococcus aureus, and vancomycin resistant strains of Pseudomonas aeruginosa and Enterococcus faecalis. The bacterial isolates were propagated in or on Brain Heart Infusion broth (BHI), Mueller-Hinton Broth (MHB), blood agar (BA), Mueller-Hinton agar (MHA), enterococcus agar (EA), or 2× nutrient agar (2×NA).

[8] = test system: Staphylococcus aureus; experiment: as above; type: cell-based; settings: Staph. aureus
Source text: as §2

[9] = test system: Enterococcus faecalis; experiment: as above; type: cell-based
Source text: as §2

[10] = test system: Pseudomonas aeruginosa; experiment: Antibiotic resistance profile by disc diffusion on MHA; type: cell-based; settings: human burn isolate; further: key: R = resistant; I = intermediate; S = sensitive
Description: as §2
(§3) Antibiotic resistance profiles were determined by the disc diffusion method on MHA (5).

[11] = test system: Staphylococcus aureus; experiment: as above; type: cell-based; settings: human burn isolate
Description: as §2, §3

[12] = test system: Enterococcus faecalis; experiment: as above; type: cell-based; settings: human burn isolate
Description: as §2, §3

[13] = test system: Pseudomonas aeruginosa; experiment: MIC (broth-dilution microtiter) and FIC/isobologram (microtiter checkerboard) of EDTA-Tris and antibiotics; type: cell-based; settings: Ps. aeruginosa
Description: (§4) Agents and Chem. 210-217. (1967) and Sparks et al., Vet. Res. Comm. 18, 241-249 (1994), incorporated herein by reference in their entireties.
(§5) Then 0.05 ml of an 18-hour old culture of a test organism, containing 10^6 colony-forming units (CFU)/ml, was added to each well. Controls for the culture and media were included in each plate. Plates were covered and incubated at 37° Celsius for 18-24 hours.
(§6) To generate isobolograms, FICs of the two test solutions were plotted individually on the x-axis and y-axis to determine the effect of combining the two test solutions on bacterial growth. A line that curves away from the zero point and the coordinates indicates antagonism.
(§7) A numerical score or fractional inhibitory concentration (FIC) index was determined. The FIC index is equal to the sum of the values of FIC for the individual drugs: [formula]
(§8) An FIC index greater than 1.0 indicates an antagonistic interaction, an FIC index of 1.0 indicates addition, and an FIC index of less than or equal to 0.5 indicates synergism between the two test agents.
as §2

[14] = test system: Staphylococcus aureus; experiment: as above; type: cell-based; settings: Staph. aureus
Description: as §4, §5, §6, §7, §8, §2

[15] = test system: Enterococcus faecalis; experiment: as above; type: cell-based; settings: Ent. faecalis
Description: as §4, §5, §6, §7, §8, §2
Wherever Antibiotic resistance profile is given: key: R = resistant; I = intermediate; S = sensitive.

cocamidopropyl betaine
MBC [1]: 0.3% of stock solution | MIC [1]: 0.1% of stock solution | MBC [2]: 50% of stock solution | MIC [2]: 25% of stock solution | MBC [3]: 0.1% of stock solution | MIC [3]: 0.1% of stock solution | MBC [4]: 0.3% of stock solution | MIC [4]: 0.1% of stock solution | MBC [5]: 50% of stock solution | MIC [5]: 25% of stock solution | MBC [6]: 50% of stock solution | MIC [6]: 25% of stock solution

neomycin
MBC of Neomycin, Individually Administered [7]: 5000 µg/mL | MBC of Neomycin, Co-administered ([7]; with EDTA): 40 µg/mL | Decrease of MBC value when EDTA and neomycin combined compared to individually administered [8]: about 50% and 50% | MBC of Neomycin, Individually Administered ([8]; in 50 mM Tris): 3130 µg/mL | MBC of Neomycin, Co-administered ([8]; with EDTA, in 50 mM Tris): 1560 µg/mL | MBC of Neomycin, Individually Administered ([9]; En. faecalis, in 50 mM Tris): 25000 µg/mL | MBC of Neomycin, Co-administered ([9]; En. faecalis, with EDTA, in 50 mM Tris): 6250 µg/mL | Decrease of MBC value when EDTA and neomycin combined compared to individually administered ([9]; Ent. faecalis): 75% | Antibiotic resistance profile [10]: R | Antibiotic resistance profile [11]: R | Antibiotic resistance profile [12]: R | MIC, antibiotic Individually Administered ([13]; antibiotic alone): 1000 µg/mL | MIC, antibiotic Individually Administered ([14]; antibiotic alone): 3130 µg/mL | MIC, antibiotic Individually Administered ([15]; antibiotic alone): 3130 µg/mL

O=C(O)CN(CCN(CC(=O)O)CC(=O)O)CC(=O)O [EDTA, ethylenediamenetetracetic acid]
MIC, EDTA Individually Administered ([13]; EDTA in 50 mM Tris alone): 1250 µM | MIC, EDTA Individually Administered ([14]; EDTA in 50 mM Tris alone): 1000 µM | MIC, EDTA Individually Administered ([15]; EDTA in 50 mM Tris alone): 15630 µM

CN[C@H](CC(C)C)C(=O)N[C@H]1C(=O)N[C@@H](CC(N)=O)C(=O)N[C@H]2C(=O)N[C@H]3C(=O)N[C@H](C(=O)N[C@H](C(=O)O)c4cc(O)cc(O)c4-c4cc3ccc4O)[C@H](O)c3ccc(c(Cl)c3)Oc3cc2cc(c3O[C@@H]2O[C@H](CO)[C@@H](O)[C@H](O)[C@H]2O[C@H]2C[C@](C)(N)[C@H](O)[C@H](C)O2)Oc2ccc(cc2Cl)[C@H]1O [Va, vancomycin]
Antibiotic resistance profile [10]: R | Antibiotic resistance profile [11]: S | Antibiotic resistance profile [12]: R

gentamicin [Gm]
Antibiotic resistance profile [10]: I | Antibiotic resistance profile [11]: S | Antibiotic resistance profile [12]: R
